This note sets out measurements from patent US20060252073A1, “Compositions and methods for the treatment of cancer” (Regents of the University of Michigan, priority 2005, published 2006).

Values joined by “and” are separate entries in the source; they are usually repeats but may differ in a detail not shown here. Equal values may be shown once.

Data set [1] has as its system Flk2^−Sca-1^+Lin^−c-kit^+CD48^− cells (HSCs). The following applies: mouse, in vivo.
Description: Flow cytometry and the isolation of hematopoietic stem cells (HSCs). Bone marrow cells were flushed from long bones with Hank's buffered salt solution without calcium or magnesium, supplemented with 2% heat-inactivated calf serum (GIBCO, Grand Island, N.Y.; HBSS^+). Cells were triturated and filtered through a nylon screen (45 μm, Sefar America, Kansas City, Mo.) to obtain a single cell suspension. Flk2^−Sca-1^+ Lineage^− c-kit^+ CD48^− HSCs and Thy1.1^low Sca-1^+ Mac-1^low CD4^low B220 MPPs were isolated as previously described (See, e.g., Christensen and Weissman, Proc Natl Acad Sci USA 98, 14541-6 (2001); Kiel et al., Cell 121, 1109-21 (2005); Morrison and Weissman, Immunity 1, 661-673 (1994)). For isolation of Flk2^−Sca-1^+ Lineage c-kit^+ CD48^− HSCs, whole bone marrow cells were incubated with unconjugated monoclonal antibodies to lineage markers including B220 (6B2), CD3 (KT31.1), CD4 (GK1.5), CD5 (53-7.3), CD8 (53-6.7), Gr-1 (8C5), Mac-1 (M1/70) and Terl19. Following dilution, pelleted cells were resuspended in anti-rat IgG-specific F(ab)2 conjugated to phycoerythrin (PE; Jackson ImmunoResearch, West Grove, Pa.). […] When CD45.2^+ HSCs were analyzed, CD45.2 (104-FITC; BD PharMingen) and CD48 (HM48-1-PE, eBioscience) were used. […]
Cell cycle analysis. BrdU incorporation was measured by flow-cytometry (BD PharMingen). […]
Data set [2] deals with Pten^fl/flMx-1-Cre mice. Put plainly: Rapamycin given immediately after Pten deletion (pIpC) in Pten fl/fl Mx-1-Cre mice. Type of data set: in vivo. The following applies: daily injections for 7 days after pIpC treatment. Here is the method: Administration of polyinosine-polycytidine (pIpC) to induce Mx-1-Cre expression. pIpC (Sigma P-0913) was resuspended with DPBS at a concentration of 2 mg/ml and passed through a 0.22 uM filter (See, e.g., Mikkola et al., Nature 421, 54751 (2003)). Mice received 25 ug of pIpC/g of body mass every other day for 2 weeks.
(§1) Administration of Rapamycin.
(§2) Histopathology. Spleen, liver, and thymus samples were fixed in 10% neutral buffered formalin and paraffin embedded. Thin sections (5 μm) were cut on a microtome and stained with hematoxylin and eosin using standard protocols. Chloroacetate esterase staining was performed using a Leder stain kit (Sigma).
All 3 such mice in this experiment died within 3-4 weeks of pIpC treatment, with AML and ALL (FIG. 9c).

Data set [3] relates to established leukemias (AML and ALL). Description: Rapamycin against established leukemias in mice transplanted with Pten fl/fl Mx-1-Cre bone marrow cells, starting 15 weeks after pIpC. The format is in vivo. The settings on record: daily 4 mg/kg from 15 weeks after pIpC. Here is the method:
as §1, §2
To test if rapamycin was effective against established leukemias, mice that had been transplanted with Pten^fl/fl Mx-1-Cre bone marrow cells were treated with daily injections of vehicle or rapamycin, beginning 15 weeks after pIpC.
Mice that had been transplanted with 1×10^6 Pten^fl/fl Mx-1-Cre donor (CD45.2^+) bone marrow cells along with 0.5×10^6 control (CD45.1^+) bone marrow cells were treated with daily injections of vehicle or rapamycin (4 mg/kg), starting 15 weeks after pIpC treatment.

In the case of `CO[C@H]1C[C@@H]2CC[C@@H](C)[C@@](O)(O2)C(=O)C(=O)N2CCCC[C@H]2C(=O)O[C@H]([C@H](C)C[C@@H]2CC[C@@H](O)[C@H](OC)C2)CC(=O)[C@H](C)/C=C(\C)[C@@H](O)[C@@H](OC)C(=O)[C@H](C)C[C@H](C)/C=C/C=C/C=C/1C` [Rapamycin], in data set [1], the “HSC numbers in control mice” value was “without affecting” and the “proliferation of HSCs from control littermates” value is recorded as “without affecting”. Besides, the “bone marrow and spleen cellularity in control mice” value in data set [2] is recorded as “without significantly affecting”. Further, the “Bone marrow HSCs that were donor type, average” value in data set [3] (average of 3 mice) worked out at 39 ± 6%. In data set [3] (individual mice, Pten-deficient donor (CD45.2+) HSCs, 4 mg/kg), the “Bone marrow HSCs that were donor type” value was 35% and 45% and 36%.
